Results published in patent publication US8440830B2, “Tetrahydro-fused pyridines as histone deacetylase inhibitors” (4SC AG, priority 2007, dated 2013).

Each compound was assayed on A549 NSCLC cells (assay: Cellular cytotoxicity assay (Alamar Blue), A549). Conditions: Homo sapiens, 72 h, upper end given as ≧100, read-out: IC50 (μM), cytotoxicity towards A549 NSCLC cells.
Type: cell-based
Protocol: The anti-proliferative activity of the histone deacetylase inhibitory compounds as described herein, is evaluated using the following cell lines: HeLa and HeLa-KB (cervical carcinoma), H460 (non small cell lung cancer), A549 (non-small cell lung cancer), MCF7 (breast carcinoma), MCF10A (normal, non tumorigenic breast epithelial), MDA-MB468 (breast carcinoma), MDA-MB435 (breast carcinoma), MDA-MB231 (breast carcinoma), SKBR-3 (breast carcinoma), SKOV-3 (ovarial carcinoma), A-2780 (ovarial carcinoma), RKO (colon carcinoma), HCT-15 (colon carcinoma), HCT-116 (colon carcinoma), PC3 (prostate carcinoma), BPH1 (benign prostate hyperplasia), AsPC1 (pancreatic carcinoma), Ca127 (tongue carcinoma), A-431 (vulva carcinoma), Hec1A (endometrial carcinoma), Saos-2 (osteosarcoma), U87MG (glioblastoma), WM266-4 (melanoma), K562 (chronic myeloid leukemia), EOL1 (acute hypereosinophilic myeloid leukemia), CCRF-CEM and CCRF-CEM VCR1000 (acute lymphoblastic leukemia sensitive and resistant towards Vincristine). For quantification of cellular proliferation/living cells the Alamar Blue (Resazurin) cell viability assay is applied (O'Brien et al. Eur J Biochem 267, 5421-5426, 2000). In this assay Resazurin is reduced to the fluorescent resorufine by cellular dehydrogenase activity, correlating with viable, proliferating cells. The examples are dissolved as 20 mM solutions in dimethylsulfoxide (DMSO) and subsequently diluted in semi-logarithmic steps. Cell lines are seeded at respective density into 96 well flat bottom plates in a volume of 200 μl per well. 24 h after seeding 1 μl each of the compound dilutions are added into each well of the 96 well plate. Each compound dilution is tested as quadruplicates. Wells containing untreated control cells are filled with 200 μl DMEM medium containing 0.5% v:v DMSO. The cells are then incubated with the compounds for 72 h at 37° C. in a humidified atmosphere containing 5% carbon dioxide. To determine the viability of the cells, 20 μl of a Resazurin solution (Sigma; 90 mg/l) are added. After 4 h incubation at 37° C. the fluorescence is measured at an extinction of λ=544 nm and an emission of λ=590 nm. For the calculation of the cell viability the emission value from untreated cells is set as 100% viability and the emission rates of treated cells are set in relation to the values of untreated cells. Viabilities are expressed as % values. The corresponding IC50 values of the compounds for cytotoxic activity are determined from the concentration-effect curves by means of non-linear regression.

SMILES	IC50 [µM]
Nc1ccccc1NC(=O)c1nc2c(s1)CN(C(=O)Nc1ccccc1OC(F)F)CC2 [Example 10, N^2-(2-aminophenyl)-N5-[2-(difluoromethoxy)phenyl]-6,7-dihydro[1,3]thiazolo[5,4-c]pyridine-2,5(4H)-dicarboxamide]	≥ 0.2
Nc1ccccc1NC(=O)c1nc2c(s1)CN(C(=S)Nc1cccc3cnccc13)CC2 [Example 104, N-(2-aminophenyl)-5-[(isoquinolin-5-ylamino)carbonothioyl]-4,5,6,7-tetrahydro[1,3]thiazolo[5,4-c]pyridine-2-carboxamide]	≥ 0.2
Nc1ccccc1NC(=O)c1nc2c(s1)CN(S(=O)(=O)c1ccc(OC(F)F)cc1)CC2 [Example 166, N-(2-aminophenyl)-5-{[4-(difluoromethoxy)phenyl]sulfonyl}-4,5,6,7-tetrahydro[1,3]thiazolo[5,4-c]pyridine-2-carboxamide]	≥ 0.2
Nc1ccccc1NC(=O)c1nc2c(s1)CN(C(=O)C(=O)Nc1ccc3c(c1)OCO3)CC2 [Example 74, N-(2-aminophenyl)-5-[(1,3-benzodioxol-5-ylamino)(oxo)acetyl]-4,5,6,7-tetrahydro[1,3]thiazolo[5,4-c]pyridine-2-carboxamide]	≥ 0.2
CC(C)c1ccc(N)c(NC(=O)c2nc3c(s2)CN(C(=O)Nc2ccc(N(C)C)cc2)CC3)c1 [Example 50, N^2-(2-amino-5-isopropylphenyl)-N^5-[4-(dimethylamino)phenyl]-6,7-dihydro[1,3]thiazolo[5,4-c]pyridine-2,5(4H)-dicarboxamide]	≥ 0.2
CCCCNC(=O)N1CCc2nc(C(=O)Nc3ccccc3N)sc2C1 [Example 40, N^2-(2-aminophenyl)-N^5-butyl-6,7-dihydro[1,3]thiazolo[5,4-c]pyridine-2,5(4H)-dicarboxamide]	≥ 0.2
Nc1ccccc1NC(=O)c1nc2c(s1)CN(C(=O)COc1ccccc1)CC2 [Example 172, N-(2-aminophenyl)-5-(phenoxyacetyl)-4,5,6,7-tetrahydro[1,3]thiazolo[5,4-c]pyridine-2-carboxamide]	≥ 0.2
COc1ccc(N)c(NC(=O)c2nc3c(s2)CN(C(=S)Nc2cccnc2)CC3)c1 [Example 107, N-(2-amino-5-methoxyphenyl)-5-[(pyridin-3-ylamino)carbonothioyl]-4,5,6,7-tetrahydro[1,3]thiazolo[5,4-c]pyridine-2-carboxamide]	≥ 0.2
CN(C)c1cccc(C(=O)N2CCc3nc(C(=O)Nc4ccccc4N)sc3C2)c1 [Example 97, N-(2-aminophenyl)-5-[3-(dimethylamino)benzoyl]-4,5,6,7-tetrahydro[1,3]thiazolo[5,4-c]pyridine-2-carboxamide]	≥ 0.2
Nc1ccccc1NC(=O)c1nc2c(s1)CN(C(=O)NC1CCC(c3cccnc3)CC1)CC2 (stereo not shown) [Example 41, N^2-(2-aminophenyl)-N^5-(4-pyridin-3-ylcyclohexyl)-6,7-dihydro[1,3]thiazolo[5,4-c]pyridine-2,5(4H)-dicarboxamide]	≥ 0.2
Nc1ccccc1NC(=O)c1nc2c(s1)CN(C(=O)C(=O)Nc1cccc3cnccc13)CC2 [Example 68, N-(2-aminophenyl)-5-[(isoquinolin-5-ylamino)(oxo)acetyl]-4,5,6,7-tetrahydro[1,3]thiazolo[5,4-c]pyridine-2-carboxamide]	≥ 0.2
COc1ccc(NC(=O)N2CCc3nc(C(=O)Nc4cc(N(C)C)ccc4N)sc3C2)cc1 [Example 53, N^2-[2-amino-5-(dimethylamino)phenyl]N^5-(4-methoxyphenyl)-6,7-dihydro[1,3]thiazolo[5,4-c]pyridine-2,5(4H)-dicarboxamide]	≥ 0.2
CC(C)c1ccc(NC(=C[N+](=O)[O-])N2CCc3nc(C(=O)Nc4ccccc4N)sc3C2)cc1 [Example 139, N-(2-aminophenyl)-5-{1-[(4-isopropylphenyl)amino]-2-nitrovinyl}-4,5,6,7-tetrahydro[1,3]thiazolo[5,4-c]pyridine-2-carboxamide]	≥ 0.2
COc1ccc(N)c(NC(=O)c2nc3c(s2)CN(C(C)=Nc2ccccc2)CC3)c1 [Example 129, N-(2-amino-5-methoxyphenyl)-5-[N-phenylethanimidoyl]-4,5,6,7-tetrahydro[1,3]thiazolo[5,4-c]pyridine-2-carboxamide]	≥ 0.2
Nc1ccccc1NC(=O)c1nc2c(s1)CN(C(=S)NC1CCNCC1)CC2 [Example 100, N-(2-aminophenyl)-5-[(piperidin-4-ylamino)carbonothioyl]-4,5,6,7-tetrahydro[1,3]thiazolo[5,4-c]pyridine-2-carboxamide]	≥ 0.2
COc1ccc(N=C(C)N2CCc3nc(C(=O)Nc4cc(OC)ccc4N)sc3C2)cc1 [Example 130, N-(2-amino-5-methoxyphenyl)-5-[N-(4-methoxyphenyl)ethanimidoyl]-4,5,6,7-tetrahydro[1,3]thiazolo[5,4-c]pyridine-2-carboxamide]	≥ 0.2
COc1ccc(NC(=O)C(=O)N2CCc3nc(C(=O)Nc4ccccc4N)sc3C2)cc1OC [Example 66, N-(2-aminophenyl)-5-{[(3,4-dimethoxyphenyl)amino](oxo)acetyl}-4,5,6,7-tetrahydro[1,3]thiazolo[5,4-c]pyridine-2-carboxamide]	≥ 0.2
Nc1ccccc1NC(=O)c1nc2c(s1)CN(C(=O)c1ccc3ccccc3c1)CC2 [Example 95, N-(2-aminophenyl)-5-(2-naphthoyl)-4,5,6,7-tetrahydro[1,3]thiazolo[5,4-c]-pyridine-2-carboxamide]	≥ 0.2
COc1ccc(NC(=C[N+](=O)[O-])N2CCc3nc(C(=O)Nc4ccccc4N)sc3C2)cc1OC [Example 141, N-(2-aminophenyl)-5-{1-[(3,4-dimethoxyphenyl)amino]-2-nitrovinyl}-4,5,6,7-tetrahydro[1,3]thiazolo[5,4-c]pyridine-2-carboxamide]	≥ 0.2
CCCCNC(=O)C(=O)N1CCc2nc(C(=O)Nc3ccccc3N)sc2C1 [Example 79, N-(2-aminophenyl)-5-[(butylamino)(oxo)acetyl]-4,5,6,7-tetrahydro[1,3]thiazolo[5,4-c]pyridine-2-carboxamide]	≥ 0.2
CC(=Nc1ccc(N(C)C)cc1)N1CCc2nc(C(=O)Nc3ccccc3N)sc2C1 [Example 134, N-(2-aminophenyl)-5-{N-[4-(dimethylamino)phenyl]ethanimidoyl}-4,5,6,7-tetrahydro[1,3]thiazolo[5,4-c]pyridine-2-carboxamide]	≥ 0.2
CC(=Nc1ccccc1)N1CCc2nc(C(=O)Nc3cc(C(C)C)ccc3N)sc2C1 [Example 135, N-(2-amino-5-isopropylphenyl)-5-[N-phenylethanimidoyl]-4,5,6,7-tetrahydro[1,3]thiazolo[5,4-c]pyridine-2-carboxamide]	≥ 0.2
Nc1ccccc1NC(=O)c1nc2c(s1)CN(S(=O)(=O)c1cccc(OC(F)(F)F)c1)CC2 [Example 167, N-(2-aminophenyl)-5-{[3-(trifluoromethoxy)phenyl]sulfonyl}-4,5,6,7-tetrahydro[1,3]thiazolo[5,4-c]pyridine-2-carboxamide]	≥ 0.2
CN(C)c1ccc(NC(=NC#N)N2CCc3nc(C(=O)Nc4ccccc4N)sc3C2)cc1 [Example 120, N-(2-aminophenyl)-5-[(cyanoimino){[4-(dimethylamino)phenyl]amino}methyl]-4,5,6,7-tetrahydro[1,3]thiazolo[5,4-c]pyridine-2-carboxamide]	≥ 0.2
CN(C)c1ccc(NC(=O)C(=O)N2CCc3nc(C(=O)Nc4ccccc4N)sc3C2)cc1 [Example 64, N-(2-aminophenyl)-5-[{[4-(dimethylamino)phenyl]amino}(oxo)acetyl]-4,5,6,7-tetrahydro[1,3]thiazolo[5,4-c]pyridine-2-carboxamide]	≥ 0.2
Cc1ccccc1NC(=NC#N)N1CCc2nc(C(=O)Nc3ccccc3N)sc2C1 [Example 119, N-(2-aminophenyl)-5-{(cyanoimino)[(2-methylphenyl)amino]methyl}-4,5,6,7-tetrahydro[1,3]thiazolo[5,4-c]pyridine-2-carboxamide]	≥ 0.2
Nc1ccccc1NC(=O)c1nc2c(s1)CN(C(=O)NC1CCC(c3ccncc3)CC1)CC2 (stereo not shown) [Example 44, N^2-(2-aminophenyl)-N^5-(4-pyridin-4-ylcyclohexyl)-6,7-dihydro[1,3]thiazolo[5,4-c]pyridine-2,5(4H)-dicarboxamide]	≥ 0.2
Nc1ccccc1NC(=O)c1nc2c(s1)CN(C(=O)Oc1ccc3ccccc3c1)CC2 [Example 185, 2-naphthyl 2-[(2-aminophenyl)carbamoyl]-6,7-dihydro[1,3]thiazolo[5,4-c]-pyridine-5(4H)-carboxylate]	≥ 0.2
